Measurements taken from patent US20070105924A1 (priority 2005, published 2007).

Columns and labels:
[1] = isosteric functionality compared with a carboxylic group; cited from earlier work
[2] = target: T1, GABA-AT (Sus scrofa, UniProt P80147); assay: Preliminary substrate activity test with [14C]-labeled α-ketoglutarate; format: biochemical, pig; settings: for Converted α-KG: incubation time 48 h, GABA-AT 0.7 μM, substrate 2.5 mM, α-KG 2.9 mM; for substrate activity for GABA-AT (in words): preliminary test, 48 h incubation
T1 sequence (P80147 29-500): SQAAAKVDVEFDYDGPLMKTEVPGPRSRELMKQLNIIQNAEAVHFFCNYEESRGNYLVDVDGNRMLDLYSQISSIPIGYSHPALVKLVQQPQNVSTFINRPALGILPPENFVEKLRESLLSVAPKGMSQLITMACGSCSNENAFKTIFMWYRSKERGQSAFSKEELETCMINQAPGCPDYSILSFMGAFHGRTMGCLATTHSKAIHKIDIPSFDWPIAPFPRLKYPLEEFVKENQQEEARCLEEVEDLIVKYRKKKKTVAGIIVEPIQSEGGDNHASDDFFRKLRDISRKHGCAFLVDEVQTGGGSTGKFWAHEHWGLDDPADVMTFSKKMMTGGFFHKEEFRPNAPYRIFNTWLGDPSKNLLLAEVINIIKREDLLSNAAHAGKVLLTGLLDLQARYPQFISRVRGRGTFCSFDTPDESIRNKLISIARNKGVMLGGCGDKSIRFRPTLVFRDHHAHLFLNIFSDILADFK
Source text: Tetrazole derivative 5 was the most efficient of the synthesized substrates. The tetrazole group was the best bioisostere for the carboxylic acid group in this series of compounds tested.

[3] = target: T1, GABA-AT; assay: Time-dependent inhibition of GABA-AT (Kitz and Wilson replot); format: biochemical, pig; settings: for time-dependent inhibition of GABA-AT (in words): 9 and 10 compared with 8 at the same concentration
Procedure: Aliquots (20 μL) were withdrawn at timed intervals and were added immediately to the assay solution (575 μL) followed by the addition of excess SSDH (5 μL). The reaction rates were measured by a UV-vis spectrophotometer at 340 nm. […] A Kitz and Wilson replot was used to determine the kinetic constants kinact and KI, as referenced above.

[4] = target: T1, GABA-AT; assay: Time-independent inhibition of GABA-AT; format: biochemical, pig; settings: 1-10 mM inhibitor, 25° C., read-out: estimated IC50
Source text: The percentage of remained enzyme activity was obtained by comparison to that of an untreated enzyme control. The logarithm of the percentage of remained activity is plotted versus the concentration of the inhibitors to calculate IC50 values.

[5] = time-dependent inhibition, 25 ° C., pH 8.5

| Compound | Converted α-KG [2] [%] | substrate activity for GABA-AT (in words) [2] | time-dependent inhibition of GABA-AT (in words) [3] | further results |
| --- | --- | --- | --- | --- |
| COC(=O)NC(=O)CCN [Compound 2, Methyl β-alanylcarbamate] | 1.3 | substrates for GABA-AT | – | pKa [1]: ~8 |
| CS(=O)(=O)NC(=O)CCN [Compound 3, Methyl b-alanylsulfonamide] | 6.4 | substrates for GABA-AT | – | pKa [1]: comparable to that of a carboxylic acid |
| NCc1ccc2[nH]ccc2c1 [Compound 4, Indole-5-methanamine] | 0.1 | little or no substrate activity | – | – |
| NCCc1nnn[nH]1 [Compound 5, 1H-Tetrazole-5-ethanamine] | 20 | substrates for GABA-AT | – | – |
| C=CC(N)CCc1nnn[nH]1 (stereo not drawn) [Compound 8, 1H-Tetrzole-5-(α-vinyl-propanamine)] | – | – | showed time-dependent inhibition | times less efficient (kinact/KI) than vigabatrin ([3]; relative to racemic vigabatrin): 6.6 times; kinact/KI ([3]; time-dependent inhibition): 2.17 M⁻¹ s⁻¹; Ki [3, 5]: 5.6 mM; kinact [3, 5]: 0.0122 s⁻¹ |
| C=CC(N)CCc1nnn(C)n1 (stereo not drawn) [Compound 9, 2-Methyl-2H-tetrazole-5-(α-vinyl-propanamine)] | – | – | Neither 9 nor 10 showed time-dependent inhibition | IC50 [4]: > 10 mM |
| C=CC(N)CCc1nnnn1C (stereo not drawn) [Compound 10, 1-methyl-1H-tetrazole-5-(α-vinyl-propanamine)] | – | – | Neither 9 nor 10 showed time-dependent inhibition | IC50 [4]: > 10 mM |
| NCCCC(=O)O [GABA, γ-aminobutyric acid, reference compound] | 25 | – | – | – |
